# Measurements from patent US20050170481A1, “Novel (d)-2-hydroxy-acid oxidase derived from microorganism and biochemical process for producing glyoxylic acid therewith” (priority 2002, published 2005).
# Experiments:
# [1] = test system: (D)-2-hydroxy-acid oxidase (enzyme of the present invention); test: Oxidase reaction activity (H2O2 / 4-AA / TOOS / POD, absorbance at 555 nm), substrate specificity; format: biochemical, Arthrobacter sp. KNK-GA1 strain; details: for Relative activity (%): Table 2, 30° C., 100 seconds; for activity of the (D)-2-hydroxy-acid oxidase for the substrate (in words): summary of Table 1
# Experimental: The reaction activity of oxidase is basically measured by adding 0.1 ml of an enzyme solution to 0.9 ml of a 100 mM phosphate buffer (pH 7) having the composition below, and measuring an increase in absorbance at a wavelength of 555 nm at 30° C. In the present invention, when 1 μmol of H2O2 is produced for 1 minute, the enzyme activity is defined as 1 unit.
# The enzymatic properties of the enzyme produced in Example 6 were measured.
# (§1) The enzyme activity was basically measured by reacting 1.0 ml of a reaction solution containing 10 mM of a substrate such as glycolic acid, 0.67 mM of 4-AA, 1.09 mM of TOOS, 2 U/ml of POD, and 0.1 ml of an enzyme solution in a 100 mM phosphate buffer or Tris buffer at 30° C. for 100 seconds, and then measuring an increase in absorbance at a wavelength of 555 nm.
# glycolate oxidase [2] = details: Table 1; activity for glycolic acid regarded as 100%; J. Biochem., 16, 1373-1378, 1984; cited from earlier work
# glycolate oxidase [3] = details: Table 1; activity for glycolic acid regarded as 100%; J. Phycol., 32, 790-798, 1996; cited from earlier work
# [4] = target: T1, glycolate oxidase (produced by Sigma Corporation) derived from spinach (Spinacia oleracea, UniProt P05414); test: Substrate specificity of glycolate oxidase derived from spinach; format: biochemical
# T1 construct: purchased Sigma Corporation
# T1 sequence (P05414 1-369): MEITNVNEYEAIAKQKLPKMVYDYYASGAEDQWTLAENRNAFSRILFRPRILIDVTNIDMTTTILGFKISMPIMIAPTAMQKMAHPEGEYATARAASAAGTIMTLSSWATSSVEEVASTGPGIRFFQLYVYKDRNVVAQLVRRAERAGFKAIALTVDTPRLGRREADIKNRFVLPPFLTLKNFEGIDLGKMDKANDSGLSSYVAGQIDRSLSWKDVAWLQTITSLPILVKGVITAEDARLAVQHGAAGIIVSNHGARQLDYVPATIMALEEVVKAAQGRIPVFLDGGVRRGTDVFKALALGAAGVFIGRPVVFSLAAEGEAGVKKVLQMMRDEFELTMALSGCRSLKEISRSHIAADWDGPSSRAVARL
# Experimental: In Table 1, the activity of each enzyme for glycolic acid is […] regarded as 100%.
# as §1
# The activity of glycolate oxidase (produced by Sigma Corporation) derived from spinach was examined for various 2-hydroxy acid compounds, and the results were compared with the results of the enzyme of the present invention produced in Example […].
# [5] = test system: lactic acid oxidase derived from soil gram-negative bacteria; details: Appl. Biochem. Biotechnol., 56, 277-288, 1996; cited from earlier work
# [6] = Table 1, activity for glycolic acid regarded as 100%
Compound,Relative activity (%) ([1]; Substrate 10 mM),"Relative Activity (%), Lemna minor (glycolate oxidase [2]) [%]","Relative Activity (%), Spatoglossum pacificum (glycolate oxidase [3]) [%]","Relative activity (%), Spinach [4, 6] [%]","Relative activity (%), Enzyme of this invention [1, 6] [%]",activity of the (D)-2-hydroxy-acid oxidase for the substrate (in words) [1],"Relative activity (%), Spinach ([4]; Table 3, Substrate 10 mM) [%]","Relative activity (%), Enzyme of this invention ([1]; Table 3, Substrate 10 mM) [%]",activity for L-lactic acid as rate of the activity for D-lactic acid [5] [%]
O=C(O)CCO [β-hydroxypropionic acid],1,,,,,,,,
CO [Methanol],0,,,,,,,,
O=C(O)CC(O)C(=O)O (racemic) [DL-malic acid],0,,,,,,,,
"CC(O)CO (stereo not shown) [1,2-propanediol]",0,,,,,,,,
O=CC(=O)O [Glyoxylic acid],,35,14,8,4,relatively low activity,,,
CC(C)C[C@H](O)C(=O)O [L-2-hydroxyisocaproic acid],0,30,77,68,0,no activity,68,0,
CCCCC(O)C(=O)O (racemic) [DL-2-hydroxycaproic acid],7,13,,29,7,,29,7,
CC(C)CC(O)C(=O)O (racemic) [DL-2-hydroxyisocaproic acid],10,,,51,10,shows activity,51,10,
O=C(O)CO [Glycolic acid],100,100,100,100,100,high activity,100,100,
CCO [Ethanol],0,,,,,,,,
O=C(O)C(O)CO (racemic) [DL-glyceric acid],54,,,,,,76,54,
OCC(O)CO [Glycerin],0,,,,,,,,
C[C@H](O)C(=O)O [L-lactic acid],0,60,26,81,0,no activity,81,0,57
OCCO [Ethylene glycol],0,,,,,,,,
1-propanol,0,,,,,,,,
C[C@@H](O)C(=O)O [D-lactic acid],82,7,0,0,82,high activity,0,82,
CCC(O)C(=O)O (racemic) [DL-2-hydroxybutyric acid],42,57,55,71,42,,71,42,
CC(C)O [2-propanol],0,,,,,,,,
CCCC(O)C(=O)O (racemic) [DL-2-hydroxyvaleric acid],32,52,91,70,32,,70,32,
